Assay results published in PubChem BioAssay (NCI).
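A five-concentration, 48-hour dose response in 96-well plates underlies each endpoint, interpolated linearly between surrounding concentrations. GI50: concentration for 50% inhibition of growth. Definition used: TGI = concentration required for complete inhibition of growth.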

Tests used:
Experiment in all cases: NCI tumour cell line growth inhibition, 48 h
[1] = tested on: 786-0 renal
[2] = tested on: A498 renal
[3] = tested on: A549 NSCLC
[4] = tested on: ACHN renal
[5] = tested on: BT-549 breast
[6] = tested on: CAKI-1 renal
[7] = tested on: CCRF-CEM leukemia
[8] = tested on: COLO 205 colon
[9] = tested on: DU-145 prostate
[10] = tested on: EKVX NSCLC
[11] = tested on: HCC-2998 colon
[12] = tested on: HCT-15 colon
[13] = tested on: HL-60(TB) leukemia
[14] = tested on: HOP-62 NSCLC
[15] = tested on: HOP-92 NSCLC
[16] = tested on: HS 578T breast
[17] = tested on: HT29 colon
[18] = tested on: IGROV1 ovarian
[19] = tested on: K-562 leukemia
[20] = tested on: KM12 colon
[21] = tested on: LOX IMVI melanoma
[22] = tested on: M14 melanoma
[23] = tested on: MALME-3M melanoma
[24] = tested on: MCF7 breast
[25] = tested on: MDA-MB-231 breast
[26] = tested on: MDA-MB-435
[27] = tested on: MDA-N
[28] = tested on: MOLT-4 leukemia
[29] = tested on: NCI-H23 lung
[30] = tested on: NCI-H460 lung
[31] = tested on: NCI-H522 lung
[32] = tested on: NCI/ADR-RES ovarian
[33] = tested on: OVCAR-3 ovarian
[34] = tested on: OVCAR-4 ovarian
[35] = tested on: OVCAR-5 ovarian
[36] = tested on: OVCAR-8 ovarian
[37] = tested on: PC-3 prostate
[38] = tested on: RPMI-8226 leukemia
[39] = tested on: RXF 393 renal
[40] = tested on: SF-268 CNS
[41] = tested on: SF-295 CNS
[42] = tested on: SF-539 CNS
[43] = tested on: SK-MEL-2 melanoma
[44] = tested on: SK-MEL-28 melanoma
[45] = tested on: SK-MEL-5 melanoma
[46] = tested on: SK-OV-3 ovarian
[47] = tested on: SN12C renal
[48] = tested on: SNB-19 CNS
[49] = tested on: SW-620 colon
[50] = tested on: T-47D breast
[51] = tested on: TK-10 renal
[52] = tested on: U251 CNS
[53] = tested on: UACC-257 melanoma
[54] = tested on: UACC-62 melanoma
[55] = tested on: HCT-116 colon
[56] = tested on: NCI-H226 lung
[57] = tested on: SNB-75 CNS
[58] = tested on: SR leukemia
[59] = tested on: UO-31 renal

## CCOP(=O)(OCC)C(Cc1ccc(Cl)cc1)NS(=O)(=O)c1ccc(C)cc1 (stereo not given)
[1]
  TGI: > 100 µM
[2]
  TGI: > 100 µM
[3]
  TGI: > 100 µM
[4]
  TGI: > 100 µM
[5]
  TGI: > 100 µM
[6]
  TGI: > 100 µM
[7]
  TGI: > 100 µM
[8]
  TGI: > 100 µM
[9]
  TGI: > 100 µM
[10]
  TGI: > 100 µM
[11]
  TGI: > 100 µM
[12]
  TGI: > 100 µM
[13]
  TGI: > 100 µM
[14]
  TGI: > 100 µM
[15]
  TGI: > 100 µM
[16]
  TGI: > 100 µM
[17]
  TGI: > 100 µM
[18]
  TGI: > 100 µM
[19]
  TGI: > 100 µM
[20]
  TGI: > 100 µM
[21]
  TGI: > 100 µM
[22]
  TGI: > 100 µM
[23]
  TGI: > 100 µM
[24]
  TGI: > 100 µM
[25]
  TGI: > 100 µM
[26]
  TGI: > 100 µM
[27]
  TGI: > 100 µM
[28]
  TGI: > 100 µM
[29]
  TGI: > 100 µM
[30]
  TGI: > 100 µM
[31]
  TGI: > 100 µM
[32]
  TGI: > 100 µM
[33]
  TGI: > 100 µM
[34]
  TGI: > 100 µM
[35]
  TGI: > 100 µM
[36]
  TGI: > 100 µM
[37]
  TGI: > 100 µM
[38]
  TGI: > 100 µM
[39]
  TGI: > 100 µM
[40]
  TGI: > 100 µM
[41]
  TGI: > 100 µM
[42]
  TGI: > 100 µM
[43]
  TGI: > 100 µM
[44]
  TGI: > 100 µM
[45]
  TGI: > 100 µM
[46]
  TGI: > 100 µM
[47]
  TGI: > 100 µM
[48]
  TGI: > 100 µM
[49]
  TGI: > 100 µM
[50]
  TGI: > 100 µM
[51]
  TGI: > 100 µM
[52]
  TGI: > 100 µM
[53]
  TGI: > 100 µM
[54]
  TGI: > 100 µM

## NCc1ccc(-c2nc(-c3ccc(Cl)c(O)c3)c(-c3ccncc3)[nH]2)cc1
[1]
  GI50: > 25 µM
  TGI: > 25 µM
[2]
  GI50: > 25 µM
  TGI: > 25 µM
[3]
  GI50: > 25 µM
  TGI: > 25 µM
[4]
  GI50: > 25 µM
  TGI: > 25 µM
[5]
  GI50: > 25 µM
  TGI: > 25 µM
[6]
  GI50: > 25 µM
  TGI: > 25 µM
[7]
  GI50: > 25 µM
  TGI: > 25 µM
[8]
  GI50: > 25 µM
  TGI: > 25 µM
[9]
  GI50: > 25 µM
  TGI: > 25 µM
[10]
  GI50: > 25 µM
  TGI: > 25 µM
[11]
  GI50: > 25 µM
  TGI: > 25 µM
[55]
  GI50: 15.9 µM
  TGI: > 25 µM
[12]
  GI50: > 25 µM
  TGI: > 25 µM
[13]
  GI50: 15.2 µM
  TGI: > 25 µM
[14]
  GI50: > 25 µM
  TGI: > 25 µM
[15]
  GI50: 2.1 µM
  TGI: 19.6 µM
[16]
  GI50: 11.9 µM
  TGI: > 25 µM
[17]
  GI50: > 25 µM
  TGI: > 25 µM
[18]
  GI50: > 25 µM
  TGI: > 25 µM
[19]
  GI50: > 25 µM
  TGI: > 25 µM
[20]
  GI50: > 25 µM
  TGI: > 25 µM
[21]
  GI50: 16.7 µM
  TGI: > 25 µM
[22]
  GI50: 5.47 µM
  TGI: 24.7 µM
[23]
  GI50: 2.72 µM
  TGI: 11.2 µM
[24]
  GI50: > 25 µM
  TGI: > 25 µM
[25]
  GI50: 11.7 µM
  TGI: > 25 µM
[26]
  GI50: 5.18 µM
  TGI: > 25 µM
[28]
  GI50: > 25 µM
  TGI: > 25 µM
[56]
  GI50: > 25 µM
  TGI: > 25 µM
[29]
  GI50: 13.5 µM
  TGI: > 25 µM
[30]
  GI50: > 25 µM
  TGI: > 25 µM
[31]
  GI50: > 25 µM
  TGI: > 25 µM
[32]
  GI50: > 25 µM
  TGI: > 25 µM
[33]
  GI50: > 25 µM
  TGI: > 25 µM
[34]
  GI50: > 25 µM
  TGI: > 25 µM
[35]
  GI50: > 25 µM
  TGI: > 25 µM
[36]
  GI50: > 25 µM
  TGI: > 25 µM
[37]
  GI50: > 25 µM
  TGI: > 25 µM
[38]
  GI50: > 25 µM
  TGI: > 25 µM
[39]
  GI50: > 19.2 µM
  TGI: > 25 µM
[40]
  GI50: > 25 µM
  TGI: > 25 µM
[41]
  GI50: > 25 µM
  TGI: > 25 µM
[42]
  GI50: > 25 µM
  TGI: > 25 µM
[43]
  GI50: 1.65 µM
  TGI: 9.86 µM
[44]
  GI50: 5.3 µM
  TGI: > 25 µM
[45]
  GI50: > 15.4 µM
  TGI: > 25 µM
[46]
  GI50: > 25 µM
  TGI: > 25 µM
[47]
  GI50: > 25 µM
  TGI: > 25 µM
[48]
  GI50: > 25 µM
  TGI: > 25 µM
[57]
  GI50: 4.1 µM
  TGI: > 20 µM
[58]
  GI50: > 25 µM
  TGI: > 25 µM
[49]
  GI50: 24.2 µM
  TGI: > 25 µM
[50]
  GI50: > 25 µM
  TGI: > 25 µM
[51]
  GI50: > 25 µM
  TGI: > 25 µM
[52]
  GI50: > 25 µM
  TGI: > 25 µM
[53]
  GI50: 3.63 µM
  TGI: 17.4 µM
[54]
  GI50: 2.53 µM
  TGI: > 25 µM
[59]
  GI50: 17.2 µM
  TGI: > 25 µM
